Activity calls are given as the source filed them. No cut-off for these calls is given here.
What was measured:
Escherichia coli [1] = experiment: Compound was evaluated for antibacterial activity against Escherichia coli ATCC 25922; Inactive; assay type: functional, organism-based
Staphylococcus aureus [2] = experiment: Compound was evaluated for antibacterial activity against Staphylococcus aureus ATCC 29213; Inactive; assay type: functional, organism-based
Escherichia coli [3] = experiment: Minimum inhibitory concentration required for antibacterial activity against Escherichia coli ATCC 25922; assay type: functional
Staphylococcus aureus [4] = experiment: Minimum inhibitory concentration required for antibacterial activity against Staphylococcus aureus ATCC 29213; assay type: functional

MIC (Escherichia coli [1])	MIC (Staphylococcus aureus [2])	MIC (Escherichia coli [3])	MIC (Staphylococcus aureus [4])	Structure (SMILES)
		> 500 µg/mL	> 500 µg/mL	O=C(COc1ccccc1)N[C@H]1CON(S(=O)(=O)[O-])C1=O.[K+]
inactive	inactive			CO/N=C(\C(=O)N[C@H]1CON(C(Oc2ccccc2)C(=O)O)C1=O)c1csc(N)n1 (stereo in doubt; 4b)
		> 1000 µg/mL	> 1000 µg/mL	CCOC(C(=O)[O-])N1OC[C@H](NC(=O)c2ccccc2)C1=O.[K+] (stereo partly specified)

The next lines start with the compound.

Structure (SMILES)	MIC (Escherichia coli [1])	MIC (Staphylococcus aureus [2])	MIC (Escherichia coli [3])	MIC (Staphylococcus aureus [4])
CO/N=C(\C(=O)N[C@H]1CON(C(Oc2ccc(Cl)cc2)C(=O)O)C1=O)c1csc(N)n1 (stereo in doubt; 4f)	inactive	inactive		
CO/N=C(\C(=O)N[C@H]1CON(C(Oc2ccc(F)cc2)C(=O)O)C1=O)c1csc(N)n1 (stereo in doubt; 4e)	inactive	inactive		
CO/N=C(\C(=O)N[C@H]1CON(C(Oc2ccccc2)C(=O)O)C1=O)c1csc(N)n1 (stereo in doubt; 4c)	inactive	inactive		
CO/N=C(\C(=O)N[C@H]1CON(C(Oc2ccc(Cl)cc2)C(=O)O)C1=O)c1csc(N)n1 (stereo in doubt; 4g)	inactive	inactive		
CO/N=C(\C(=O)N[C@H]1CON(C(Oc2ccc(F)cc2)C(=O)O)C1=O)c1csc(N)n1 (stereo in doubt; 4d)	inactive	inactive		

Source: ChEMBL document CHEMBL1128610, “Synthesis of potential -lactam antibiotics” (1995)
